Laboratory results as given in patent US5274121A, “N-methyl-N-[4-(1-pyrrolidinyl)-2-butynyl]amide congeners as muscarinic agents” (priority 1992, dated 1993).
Entries after “also recorded” stand apart in the source; their conditions may differ. Like-named read-outs stand apart in the source and are kept apart here.

How the values were obtained:
[1] = test system: SK-N-SH human neuroblastoma cells (m4 AChR); assay: Stimulation of PI turnover in SK-N-SH cells; assay type: cell-based; conditions: SK-N-SH cells; for Emax at 100 µM: Homo sapiens, 0.5 h, percent relative to the activity of OXO-M, conc. of compounds = 100 μM, read-out: Pi turnover
Method: (§1) Compounds of the present invention were tested for their binding affinities and activation of second messengers in selective muscarinic cholinergic receptor systems. It is believed that m1 -, m4 -, and m5 AChRs couple exclusively to PI turnover, whereas m2 - and m3 -AChRs couple only to adenylate cyclase inhibition.
(§2) Compounds of the present invention were screened for their biological activity. Assay systems using SK-N-SH human neuroblastoma cells which express only m4 -AChRs coupled to PI turnover, and NG108-15 neuroblastoma x glioma cells which express only m3 AChRs coupled to adenylate cyclase inhibition were used.
Stimulation of PI turnover in SK-N-SH cells
Cells were plated into 24-well plates at 100,000 cells per well. After 24 hours, they were labeled overnight with 2 μCi per well of [^3 H]-myo-inositol (American Radiolabeled Chemicals, Inc., St. Louis, Mo.; 15 Ci/mM; 2 μL of stock per mL of media). The cells were then rinsed twice with 10 mM LiCl in DMEM-Hepes and the cells were incubated in this solution for 5 min at 37° C. The indicated compound was then added at a final concentration of 100 μM and the cells were incubated for another 30 min at 37° C. The reaction was stopped by aspirating the solution and adding cold methanol to the cells. After transferring the cells to a glass tube and sonicating briefly, chloroform and water were added to make a two-phase system. The upper aqueous phase was applied to 0.6 mL anion exchange columns (AG X8, Bio-Rad) and the columns were washed and total inositol phosphates were eluted with 1M ammonium formate and 0.1M formic acid.

[2] = target: T1, muscarinic receptors, SK-N-SH cell membranes (m4 AChR) (Homo sapiens, UniProt P20309); assay: Inhibition of [3H]-NMS binding to membranes from SK-N-SH cells; conditions: SK-N-SH cells; conc. of compounds = 100 μM
T1 construct: membranes from SK-N-SH cells; endogenous in cells; host or cells: SK-N-SH human neuroblastoma cells (crude membrane fraction)
T1 sequence (P20309 whole entry): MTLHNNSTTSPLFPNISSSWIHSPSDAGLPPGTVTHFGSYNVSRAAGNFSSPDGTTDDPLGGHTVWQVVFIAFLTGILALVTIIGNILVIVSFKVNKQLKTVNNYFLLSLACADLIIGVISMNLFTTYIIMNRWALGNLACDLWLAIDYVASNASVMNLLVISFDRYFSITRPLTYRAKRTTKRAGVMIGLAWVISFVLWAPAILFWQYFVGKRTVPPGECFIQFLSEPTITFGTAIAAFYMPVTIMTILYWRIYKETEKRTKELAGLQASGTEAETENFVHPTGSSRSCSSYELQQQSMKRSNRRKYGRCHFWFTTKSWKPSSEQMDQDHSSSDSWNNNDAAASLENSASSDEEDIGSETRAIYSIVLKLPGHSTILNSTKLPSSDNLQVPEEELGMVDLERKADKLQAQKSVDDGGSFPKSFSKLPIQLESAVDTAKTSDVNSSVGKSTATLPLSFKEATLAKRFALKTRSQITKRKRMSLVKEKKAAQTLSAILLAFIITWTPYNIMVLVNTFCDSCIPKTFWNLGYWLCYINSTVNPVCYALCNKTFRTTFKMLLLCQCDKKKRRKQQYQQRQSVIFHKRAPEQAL
From the text: as §2
(§3) Compounds of the present invention were also screened for their relative binding affinities. Assay systems which measured the inhibition of ^3 H-N-methylscopolamine (^3 H-NMS) binding to membranes from NG108-15 cells and membranes from SK-N-SH cells were used.
(§4) Inhibition of [^3 H]-NMS binding
(§5) Cells were grown to confluence, harvested, and a crude membrane fraction was obtained. […] The total volume was 1 mL. The incubation was terminated by rapid filtration over GF/B filters using a Brandel cell harvester. The filters were washed three times with ice-cold 0.9% NaCl, equilibrated in scintillation counting fluid and counted on a Beckman LS 5801 liquid scintillation counter at 47% efficiency. Non-specific binding was determined by coincubation with 1 μM atropine, and amounted to less than 15% of total counts. It was routinely subtracted from the total counts.

[3] = test system: NG108-15 neuroblastoma x glioma cells (m3 AChR); assay: Inhibition of PGE1-stimulated cAMP levels in NG108-15 cells; assay type: cell-based; conditions: for agonist selectivity, in words: NG108-15 (cAMP) versus SK-N-SH (PI turnover); for inhibition at 100 µM: relative to control with no compounds added, conc. of compounds = 100 μM, read-out: cAMP Inhib; for agonist activity, in words: Table I assays
Method: as §1, §2
Inhibition of PGE1 -stimulated cAMP levels in NG108-15 cells
Cells were plated in 24-well plates and were grown to 90% confluence. The growth media was then replaced with a solution of 1 mM IBMX in DMEM-Hepes (0.5 mL per well) and the cells were incubated for 10 min at 37° C. Agonists were then added at a final concentration of 100 μM, along with PGE1 (final conc, 5 μM), and the cells were incubated for a further 15 min at 37° C. The reaction Was terminated by aspirating the solution and adding 0.5 mL of 0.1N HCl. In order to extract the cAMP from the cells, they were incubated in 0.1 N HCl for 30 min at room temperature. An aliquot (35 50 μL) was removed, lyophilized, and assayed for cAMP by radioimmunoassay.

[4] = target: T2, muscarinic receptors, NG108-15 cell membranes (m3 AChR) (Mus musculus, UniProt P32211); assay: Inhibition of [3H]-NMS binding to membranes from NG108-15 cells; conditions: for inhibition at 100 µM: NG108-15 cells, conc. of compounds = 100 μM; for binding to muscarinic receptors, in words: 3H-NMS binding, NG108-15 and SK-N-SH membranes
T2 construct: membranes from NG108-15 cells; endogenous in cells; host or cells: NG108-15 neuroblastoma x glioma hybrid cells (crude membrane fraction)
T2 sequence (P32211 1-479): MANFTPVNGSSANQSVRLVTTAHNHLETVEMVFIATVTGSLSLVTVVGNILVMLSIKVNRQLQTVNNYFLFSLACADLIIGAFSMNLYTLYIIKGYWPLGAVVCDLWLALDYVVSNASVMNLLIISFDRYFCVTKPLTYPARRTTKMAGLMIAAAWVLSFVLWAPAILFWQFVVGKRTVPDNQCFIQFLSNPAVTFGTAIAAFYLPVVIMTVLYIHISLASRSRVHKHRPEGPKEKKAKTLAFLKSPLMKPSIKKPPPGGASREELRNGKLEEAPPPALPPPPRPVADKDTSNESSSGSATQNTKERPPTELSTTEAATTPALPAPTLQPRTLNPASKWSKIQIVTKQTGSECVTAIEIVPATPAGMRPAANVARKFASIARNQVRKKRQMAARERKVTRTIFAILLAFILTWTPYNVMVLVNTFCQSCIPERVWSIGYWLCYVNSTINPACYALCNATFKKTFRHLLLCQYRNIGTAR
From the text: as §2, §3, §4, §5

Compound	inhibition at 100 µM [2] [%]	inhibition at 100 µM [4] [%]	binding to muscarinic receptors, in words [4]	stimulation of PI turnover, in words [1]	agonist selectivity, in words [3]	inhibition at 100 µM ([3]; NG108-15, NG108-15 cells) [%]	agonist activity in NG108-15 cells (cAMP inhibition), in words ([3]; NG108-15 cells)	Emax at 100 µM [1] [%]	inhibition at 100 µM ([3]; NG108-15 cells) [%]	agonist activity, in words [3]
CN(CC#CCN1CCCC1)C(=O)CN [Compound 007, N-Methyl-N-[4-(1-pyrrolidinyl)-2-butynyl]-2-aminoacetamide]	17.3 ± 3.3	23.5 ± 4	–	inactive in SK-N-SH cells	selective agonists	26.1 ± 1.6	most active as agonists in NG108-15 cells; also recorded: approximately half as active as the full agonist oxotremorine-M	–	–	–
CC(=O)NCC(=O)N(C)CC#CCN1CCCC1 [Compound 010, N-Methyl-N-[4-(1-pyrrolidinyl)-2-butynyl]-2-(N-acetylamino)acetamide]	12.5 ± 2.8	24 ± 5.4	–	–	–	14.1 ± 2.3	substantial activity	8 ± 3	–	–
CN(CC#CCN1CCCC1)C(=O)CCCCN [Compound 036]	34.4 ± 0.3	22.4 ± 3.2	–	–	–	15.8 ± 2.7	substantial activity	–	–	–
CN(CC#CCN1CCCC1)C(=O)CCCCCN [Compound 039]	55.6 ± 1.9	37.9 ± 3.2	–	–	–	14.3 ± 1	substantial activity	–	–	–
CN(CC#CCN1CCCC1)C(=O)CCCCCCCN [Compound 046]	93.7 ± 1.8	92.3 ± 3.2	most active	–	–	–	–	–	0	inactive as agonists
CC(=O)NCCCC(=O)N(C)CC#CCN1CCCC1 [Compound 022]	15.6 ± 1.6	19.1 ± 1.8	–	–	–	8 ± 3.7	substantial activity	14 ± 5	–	–
CN(CC#CCN1CCCC1)C(=O)CCN [Compound 017]	18.1 ± 2.8	15.1 ± 3.5	–	inactive in SK-N-SH cells	selective agonists	20.8 ± 1.7	most active as agonists in NG108-15 cells; also recorded: approximately half as active as the full agonist oxotremorine-M	–	–	–
CN(CC#CCN1CCCC1)C(=O)CCCN [Compound 021]	20 ± 1.5	12.1 ± 2.2	–	–	–	3.7 ± 2	–	–	–	–
CN(CC#CCN1CCCC1)C(=O)CCCCCCN [Compound 047]	81.9 ± 1	72.1 ± 2.7	most active	–	–	3 ± 1.2	–	–	–	inactive as agonists
CN(CC#CCN1CCCC1)C(=O)CCCNC(=O)c1ccccc1 [Compound 055]	27	16	–	–	–	–	–	–	0	–
CC(=O)NCCC(=O)N(C)CC#CCN1CCCC1 [Compound 018]	67.4 ± 3.3	67.7 ± 3.6	–	–	–	10.2 ± 4.8	–	–	–	–
CN(CC#CCN1CCCC1)C(=O)CCCCCNC(=O)c1ccccc1 [Compound 054]	49	35	–	–	–	–	–	–	0	–

More lines, main results first:

inhibition at 100 µM [2] [%]	inhibition at 100 µM [4] [%]	binding to muscarinic receptors, in words [4]	Compound	stimulation of PI turnover, in words [1]	agonist selectivity, in words [3]	inhibition at 100 µM ([3]; NG108-15, NG108-15 cells) [%]	agonist activity in NG108-15 cells (cAMP inhibition), in words ([3]; NG108-15 cells)	Emax at 100 µM [1] [%]	inhibition at 100 µM ([3]; NG108-15 cells) [%]	agonist activity, in words [3]
29.4 ± 1	17.9 ± 7.9	–	CC(=O)NCCCCC(=O)N(C)CC#CCN1CCCC1 [Compound 040]	–	–	–	–	–	5.2 ± 2.2	–
60	51	–	CN(CC#CCN1CCCC1)C(=O)CCCCCNC(=O)CCNC(=O)OC(C)(C)C [Compound 051]	–	–	–	–	–	0	–
32.1 ± 0.7	24.4 ± 2.5	–	CN(CC#CCN1CCCC1)C(=O)CCCNC(=O)OC(C)(C)C [Compound 020]	–	–	–	–	–	3.5 ± 1.7	–
59.1 ± 0.8	50.4 ± 4.9	–	CC(=O)NCCCCCCCC(=O)N(C)CC#CCN1CCCC1 [Compound 048]	–	–	–	–	–	0	–
24.6 ± 3.1	20.4 ± 5.5	–	CC(=O)NCCCCCCC(=O)N(C)CC#CCN1CCCC1 [Compound 049]	–	–	–	–	–	6.9 ± 2.9	–
40 ± 2.1	32.6 ± 1.5	–	CN(CC#CCN1CCCC1)C(=O)CNC(=O)OC(C)(C)C [Compound 006, N-Methyl-N-[4-(1-pyrrolidinyl)-2-butynyl]-2-(N-Boc-amino) acetamide]	–	–	–	substantial activity	–	7 ± 2.9	–
40	23	–	CN(CC#CCN1CCCC1)C(=O)CCCNC(=O)CCNC(=O)OC(C)(C)C [Compound 053]	–	–	–	–	–	0	–
40	5	–	CN(CC#CCN1CCCC1)C(=O)CCCNC(=O)CNC(=O)OC(C)(C)C [Compound 052, N-Methyl-N-[4-(1-pyrrolidinyl)-2-butynyl]-5-(N-[2-(N-Boc-amino)ethanoyl]amino)butanamide]	–	–	–	–	–	0	–
32.1 ± 2.1	26.7 ± 1.6	–	CN(CC#CCN1CCCC1)C(=O)CCCCNC(=O)OC(C)(C)C [Compound 035]	–	–	–	–	1 ± 1	0.5 ± 0.3	–
50	51	–	CN(CC#CCN1CCCC1)C(=O)CCCCCNC(=O)CNC(=O)OC(C)(C)C [Compound 050]	–	–	–	–	–	0	–
17.4 ± 3.6	22.7 ± 2.8	–	CC(=O)NCCCCCC(=O)N(C)CC#CCN1CCCC1 [Compound 041]	–	–	–	–	1 ± 1	3 ± 1.7	–
39.1 ± 2.4	31.9 ± 0.9	–	CN(CC#CCN1CCCC1)C(=O)CCCCCNC(=O)OC(C)(C)C [Compound 038]	–	–	–	–	–	0	–
45.1 ± 2.5	36.3 ± 3.1	–	CN(CC#CCN1CCCC1)C(=O)CCNC(=O)OC(C)(C)C [Compound 016]	–	–	–	substantial activity	–	12.5 ± 2.7	–
81.4 ± 2.4	77.9 ± 2.4	most active	CN(CC#CCN1CCCC1)C(=O)CCCCCCNC(=O)OC(C)(C)C [Compound 045]	–	–	–	–	–	0	inactive as agonists
92.1 ± 1	89 ± 2.5	most active	CN(CC#CCN1CCCC1)C(=O)CCCCCCCNC(=O)OC(C)(C)C [Compound 043]	–	–	–	–	–	0	inactive as agonists
